# Source: PMC6175574, “Kinetic mechanism of coupled binding in sodium-aspartate symporter GltPh” (eLife, 2018)
# “And” between values parts separate entries of the source, which are not always exact repeats. Equal entries are not always repeated. Where two headings read alike, the source gives them in different places.
# Key:
# P11W^IFS [1] = target: T1, P11W^IFS (Pyrococcus horikoshii, UniProt O59010, A364C/C321A/D37H/E368H/K125H/K132H/K223H/K264H/K40H/K55C/P11W); format: binding; details: for koff: fitted; for kon: reaction 1, T + Na = TNa
# T1 sequence (O59010 whole entry P11W/D37H/K40H/K55C/K125H/K132H/K223H/K264H/C321A/A364C/E368H): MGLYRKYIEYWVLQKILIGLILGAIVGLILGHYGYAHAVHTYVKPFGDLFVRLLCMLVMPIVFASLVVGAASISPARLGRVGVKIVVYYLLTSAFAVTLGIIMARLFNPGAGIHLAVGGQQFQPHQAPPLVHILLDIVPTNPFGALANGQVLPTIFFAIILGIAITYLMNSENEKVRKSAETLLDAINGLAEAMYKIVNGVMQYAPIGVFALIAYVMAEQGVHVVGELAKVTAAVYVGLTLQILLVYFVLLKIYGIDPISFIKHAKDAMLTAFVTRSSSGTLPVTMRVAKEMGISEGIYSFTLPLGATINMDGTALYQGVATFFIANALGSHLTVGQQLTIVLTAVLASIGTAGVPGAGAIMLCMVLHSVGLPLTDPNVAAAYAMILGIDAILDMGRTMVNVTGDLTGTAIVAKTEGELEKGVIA
# Excerpt: The kinetic models in Figure 4, Figure 4—figure supplement 4 and Figure 5—figure supplement 1 were implemented in KinTek program (KinTek, Inc) ([Johnson, 2009]) for global parameter fitting and in Copasi ([Hoops et al., 2006]) for simulations. […] Raw relaxation curves, including 21 dissociation and 58 binding reactions were fitted globally in KinTek (Figure 4—figure supplements 2 and 3).
# (§1) 68 individual relaxation curves were fitted globally, allowing only the rates of DL-TBOA dissociation to be adjusted (Figure 4—figure supplement 5).
# [2] = target: P11W^IFS (Hg^2+-crosslinked P11W/K55C/A364C GltPh, inward-facing state) (Pyrococcus horikoshii, UniProt O59010, A364C/C321A/D37H/E368H/K125H/K132H/K223H/K264H/K40H/K55C/P11W); format: binding; details: for slope of kr values versus Na^+ concentration: linear fit constrained through the origin, kr from plateaus of ligand binding rates
# P11W^IFS (Hg^2+-crosslinked P11W/K55C/A364C GltPh, inward-facing state), sequence (O59010 whole entry P11W/D37H/K40H/K55C/K125H/K132H/K223H/K264H/C321A/A364C/E368H): as above
# Experimental: (§2) For emission scans, protein samples at 1 µM were prepared in 2 mL of 20 mM Hepes/Tris pH 7.4, 300 mM choline chloride and 1 mM DDM. […] Baseline was determined using buffer only and subtracted from the data. […] For real-time fluorescence measurements of ligand binding, protein samples at 1 µM were incubated in 2 mL fluorometer cell containing 20 mM Hepes/Tris pH 7.4, 300 mM choline chloride and 1 mM DDM with various NaCl concentrations at 25°C. Data were normalized by dividing fractional fluorescence change by the maximal change observed upon addition of saturating ligand concentrations at the end of each experiment. After signal equilibration, ligands were added with fast stirring. Excitation and emission wavelengths were 295 and 350 nm, respectively. Here and elsewhere, data were analyzed using SigmaPlot 12.0 (Systat Software, Inc) and GraphPad Prism 7 (GraphPad Software). All kinetic relaxation curves were fitted to single exponentials.
# The full Equation 4 requires fitting of four rate constants, kr, k-r, kon and koff ([Vogt et al., 2012]). […] The data for DL-TBOA binding were fitted to Equation 3.
# P11W^IFS [3] = target: T1, P11W^IFS; experiment: Fluorescence-based titration using RH421; format: binding
# Experimental: After addition of appropriate NaCl concentrations and 200 nM RH421 (Sigma-Aldrich), the samples were incubated at 25°C until fluorescence signal plateaued. […] Excitation and emission wavelengths were 532 and 628 nm, respectively.
# wild type GltPh [4] = target: T2, wild type GltPh (Pyrococcus horikoshii, UniProt O59010); details: 100 mM NaCl; ref Ryan et al., 2009; cited from earlier work
# T2 sequence (O59010 whole entry): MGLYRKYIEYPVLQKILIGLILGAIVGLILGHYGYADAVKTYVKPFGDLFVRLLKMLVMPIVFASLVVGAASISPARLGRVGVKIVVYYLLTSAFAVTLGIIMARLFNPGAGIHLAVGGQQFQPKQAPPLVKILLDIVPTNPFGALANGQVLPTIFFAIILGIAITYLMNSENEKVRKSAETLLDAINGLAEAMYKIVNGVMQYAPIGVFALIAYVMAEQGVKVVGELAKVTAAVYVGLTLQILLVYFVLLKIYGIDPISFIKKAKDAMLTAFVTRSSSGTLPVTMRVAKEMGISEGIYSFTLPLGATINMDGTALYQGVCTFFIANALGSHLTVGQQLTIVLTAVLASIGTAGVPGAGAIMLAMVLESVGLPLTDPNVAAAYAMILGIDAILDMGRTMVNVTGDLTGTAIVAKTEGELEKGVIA
# wild type GltPh [5] = target: T2, wild type GltPh; experiment: L-asp transport (uptake and exchange) in proteoliposomes; format: biochemical; set-up: made in house; host or cells: Escherichia coli (DH10b is stated for the mutants); details: 35°C, 200 mM NaCl external
# Experimental: GltPh protein samples were reconstituted into liposomes as previously described ([Boudker et al., 2007]; [Ryan et al., 2009]). In brief, 0.1% L-α-Phosphatidylethanolamine-N-lissamine rhodamine B sulfonyl (Avanti Polar Lipids) was added to with 3:1 (w/w) mixture of E.coli polar lipid extract and egg phosphatidylcholine and dried on rotary evaporator and under vacuum overnight. The mixture was hydrated using 20 mM Hepes/Tris, pH 7.4 and 200 mM KCl buffer at final lipid concentration of 5 mg/ml by 10 freeze/thaw cycles. The suspensions were extruded through 400 nm filter membranes (Whatman) 10 times to form unilamellar liposomes. The rhodamine fluorescence of the liposomes was measured to generate a concentration calibration curve; excitation and emission wavelengths were 560 and 583 nm, respectively. […] Final concentrations of proteoliposomes were determined by rhodamine fluorescence.
# For substrate exchange experiments, the internal proteoliposome buffer was replaced with buffer containing 20 mM Hepes/Tris, pH 7.4 and 200 mM NaCl and 100 µM L-asp. […] The washed filter membranes were transferred into scintillation vials, and retained radioactivity was measured using LS6500 scintillation counter (Beckman Coulter). Background uptake was measured in the reaction buffer containing 20 mM Hepes/Tris pH 7.4, 200 mM KCl, 500 nM ^3H-L-asp and 100 nM cold L-asp.
# GltPh Na3 site = tested on: GltPh Na3 site; set-up: method as in Heinzelmann et al., 2011; Heinzelmann et al., 2013; details: estimated in computational studies, ref Heinzelmann et al., 2011, 2013; cited from earlier work
# [6] = target: T3, FM-P11W^IFS (R276S/M395R within P11W^IFS background) (Pyrococcus horikoshii, UniProt O59010, A364C/C321A/D37H/E368H/K125H/K132H/K223H/K264H/K40H/K55C/M395R/P11W/R276S); format: binding
# T3 construct: made in house; host or cells: Escherichia coli DH10b
# T3 sequence (O59010 1-417 P11W/D37H/K40H/K55C/K125H/K132H/K223H/K264H/R276S/C321A/A364C/E368H/M395R): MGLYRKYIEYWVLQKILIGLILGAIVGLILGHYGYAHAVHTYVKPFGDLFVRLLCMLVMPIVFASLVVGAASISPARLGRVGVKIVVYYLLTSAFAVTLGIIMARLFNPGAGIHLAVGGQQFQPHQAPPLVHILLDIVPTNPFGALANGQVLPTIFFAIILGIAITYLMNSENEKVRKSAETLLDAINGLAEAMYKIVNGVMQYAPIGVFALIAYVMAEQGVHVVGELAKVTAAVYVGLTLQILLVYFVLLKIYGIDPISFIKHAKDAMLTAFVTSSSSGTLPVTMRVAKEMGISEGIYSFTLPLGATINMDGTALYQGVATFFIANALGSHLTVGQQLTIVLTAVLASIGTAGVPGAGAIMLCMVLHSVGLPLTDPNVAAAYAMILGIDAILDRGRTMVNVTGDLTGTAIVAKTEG
# Experimental: as §2, §1
compound,measurement,setting,value
"N[C@H](C(=O)O)[C@H](OCc1ccccc1)C(=O)O (racemic) [DL-TBOA, DL-threo-β-benzyloxyaspartic acid, reference compound]",increase in the rate of unbinding relative to L-asp in kinetic model,P11W^IFS [1],about 20 fold
same,koff,"P11W^IFS [1]; reaction 3, TNa + A = TANa, P11W^IFS/DL-TBOA model",11.5 ± 5 s⁻¹
same,koff,"P11W^IFS [1]; reaction 4, TNa2 + A = TANa2, P11W^IFS/DL-TBOA model",1.72 ± 0.09 s⁻¹
same,kobs of DL-TBOA binding,"[2]; 8 mM DL-TBOA, 4 mM Na^+, representative experiment, single exponential fit",0.2106 s⁻¹
same,slope of kr values versus Na^+ concentration,[2],26 ± 1.7 M⁻¹ s⁻¹
"N[C@@H](CC(=O)O)C(=O)O [L-asp, aspartate]",slope of log-log plot of L-asp dissociation constants as a function of Na^+ concentration,P11W^IFS [3],2.5
same,Km,wild type GltPh [4],~0.1 µM
same,kobs of L-asp binding,"[2]; 0.5 mM L-asp, 4 mM Na^+, representative experiment, single exponential fit",0.0712 s⁻¹
same,slope of kr values versus Na^+ concentration,[2],36 ± 0.9 M⁻¹ s⁻¹ and 36 M⁻¹ s⁻¹
same,rate of concentrative Na^+-driven uptake of radiolabeled L-asp compared with rate of L-asp exchange,wild type GltPh [5],significantly higher
"[Na+] [Na^+, sodium]",intrinsic affinity of Na3 site,GltPh Na3 site,-16 kcal/mol
same,increase of the rate of binding of the first Na^+ ion relative to P11W^IFS,[6]; kinetic model adjustment,4 fold
same,kon,"[6]; reaction 1, T + Na = TNa, FM-P11W^IFS/L-asp model",144 M⁻¹ s⁻¹
same,koff,"[6]; reaction 1, T + Na = TNa, FM-P11W^IFS/L-asp model, optimized in global fitting (#)",39 ± 3 s⁻¹
same,Na^+ concentration at which fluxes through 'second Na^+ binds first' and 'L-asp binds first' branches are equal,"P11W^IFS [1]; kinetic model, forward and reverse directions",~ 3.6 mM and 3.6 mM
same,kon,"P11W^IFS [1]; P11W^IFS/DL-TBOA model, fixed (*)",36 M⁻¹ s⁻¹
same,kon,"P11W^IFS [1]; P11W^IFS/L-asp model, fixed during fitting (*)",36 M⁻¹ s⁻¹
same,remaining binding rates for Na^+ ions,P11W^IFS [1]; set at an arbitrary high value,10^7 M^−1 s^−1
same,affinity of binding of the first Na^+ ion,P11W^IFS [1]; suggested by experimental data,no more than −0.5 kcal/mol
same,Kd,"[2]; Hill coefficient n fixed to 1, L-asp dissociation experiments, read-out: KD,Na of rapidly equilibrating Na^+ ions (fit to Equation 2)",40 ± 20 µM
same,Kd,"[2]; Hill coefficient n fixed to 2, L-asp dissociation experiments, read-out: KD,Na of rapidly equilibrating Na^+ ions (fit to Equation 2)",130 ± 20 µM
same,Kd,"[2]; Hill coefficient n fixed to 3, L-asp dissociation experiments, read-out: KD,Na of rapidly equilibrating Na^+ ions (fit to Equation 2)",150 ± 13 µM
same,Kd,[2]; read-out: affinity of the two 'locking' Na^+ ions,~100 µM
